From patent publication EP0674635B1, “QUINUCLIDINE DERIVATIVES AS SQUALENE SYNTHASE INHIBITORS” (Syngenta Limited, priority 1992, dated 1994) come the findings set out here.

A word on the ED50: it is the midpoint of the dose-response relation. Read a high ED50 as a need for a large dose. A word on the inhibition: it is the relative decrease from the control value, in per cent. A higher inhibition goes with strong suppression.

Test [1] concerns de novo hepatic cholesterol synthesis. Nature of the test: Acute rat cholesterol synthesis assay (de novo hepatic cholesterol synthesis from 14C-acetate). The test is classed as in vivo. To be noted: for ED50: 14C-acetate. How it is done:
(b) Acute rat cholesterol synthesis assay.
This is an acute in vivo test in the rat to measure de novo hepatic cholesterol synthesis from exogenously administered ^14C-acetate.
Female rats (35 - 55 g) are housed in reverse lighting conditions (red light from 0200h - 1400h) for a period of about 2 weeks prior to test. Animals are allowed free access to chow and drinking water throughout this period. At test, animals should weigh 125 - 150 g. Test compounds may be administered by oral gavage, dissolved or suspended in 0.5% polysorbate, or by ip or iv dosing. Control animals receive vehicle alone. After 1 hour the rats are injected ip with 25µCi [2-^14C]-acetate (NEN DUPONT. specific activity, 45-60mCi/mmol NEC-085H, or AMERSHAM specific activity, 50-60mCi/mmol CFA 14) in a volume of 0.25 ml saline (100µCi/ml). After a further hour, rats are terminally anaesthetised with halothane and a blood sample obtained from the abdominal vena cava.
1ml of plasma is lyophilised and then saponified in 2ml ethanolic KOH (1 part 33% KOH, 9 parts ethanol) at 75°C for 2 hours. After addition of an equal quantity of water, non-saponifiable lipids are extracted with two 5ml volumes of hexane. The hexane extracts are evaporated to dryness and the residues dissolved in ethanol to determine cholesterol specific radioactivity. ED50 values can be determined in the standard way.

Another test addresses T1, squalene synthase (Rattus norvegicus, UniProt Q02769).
T1 construct: from tissue; host or cells: rat liver microsomes
T1 sequence (Q02769 1-416): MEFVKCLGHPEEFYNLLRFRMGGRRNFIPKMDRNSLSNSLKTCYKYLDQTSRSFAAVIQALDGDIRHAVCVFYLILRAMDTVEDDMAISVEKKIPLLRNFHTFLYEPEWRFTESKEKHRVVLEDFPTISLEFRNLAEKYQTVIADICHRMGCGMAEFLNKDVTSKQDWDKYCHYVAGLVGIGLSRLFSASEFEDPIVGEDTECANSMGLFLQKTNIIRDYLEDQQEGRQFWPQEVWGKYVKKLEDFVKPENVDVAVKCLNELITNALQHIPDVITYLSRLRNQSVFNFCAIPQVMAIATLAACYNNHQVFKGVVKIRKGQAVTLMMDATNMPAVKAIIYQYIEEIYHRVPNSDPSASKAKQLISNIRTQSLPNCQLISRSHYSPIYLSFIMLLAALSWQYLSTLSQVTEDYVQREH
Nature of the test: Inhibition of squalene synthase (formation of squalene from tritiated farnesyl pyrophosphate, rat liver microsomal protein). It counts as biochemical. To be noted: at a concentration of 2.5µM, substrate 20µM. Here is the method: (a) Inhibition of Squalene synthase
In this test, the ability of a compound to prevent the formation of squalene from a radioactive substrate (tritiated farnesyl pyrophosphate) is assessed.
The test compound is incubated at a concentration of 25 micromolar in 200µl of a buffered solution containing potassium phosphate (50mM), MgCl2 (4.95mM), KF (9.9mM), NADPH (0.9mM) and rat liver microsomal protein (20µg). Rat liver microsomes are prepared by the method described in published European Patent Application No. 324,421 and stored in liquid nitrogen prior to assay. Assay vials are kept at 37°C throughout the incubation.
The reaction is started with the addition of the substrate (1-(^3H]-farnesyl pyrophosphate), final concentration 20µM, and stopped after 15 minutes reaction time with the addition of 50µl of 4% KOH. The reaction products are separated from unreacted substrate after application to a C-18 octadecyl 1ccBond column (Analytichem Int product No. 617101). An aqueous fraction is eluted with 250µl of 0.1M KOH. Squalene is then eluted with 1.0 ml 10% ethylacetate in hexane and radioactivity determined. The difference in radioactivity in the presence and absence of the test compound is used to determine the level of inhibition. […] The IC50 can then be determined from a plot of percentage inhibition against concentration of test compound.
For orientation: Liver microsomes are vesicles of endoplasmic reticulum, rich in cytochrome P450 enzymes.

The structures appear in SMILES notation.

In test [1], `OC1(c2ccc(-c3cnc4ccccc4c3)cc2)CN2CCC1CC2` (centres unmarked) [Example 12, 3-[4-quinol-3-ylphenyl]quinculidin-3-ol] had an ED50 of around 3.8 mg/kg.

`OC1(c2ccc(-c3ccc4ccccc4n3)cc2)CN2CCC1CC2` (centres unmarked) [Example 3, 3-[4-(2-quinolyl)phenyl)quinuclidin-3-ol] gave an inhibition at 2.5 µM on squalene synthase of around 71%. In test [1], this compound had an ED50 of around 14 mg/kg. In addition, in test [1] (dose not given), the “reduction in the rate of cholesterol biosynthesis” value was determined as 74%.

Turning to `OC1(c2ccc(-c3nc4ccccc4o3)cc2)CN2CCC1CC2` (centres unmarked) [Example 6, 3-[4-(benzoxazol-2-yl)phenyl]quinuclidin-3-ol], the ED50 in test [1] was around 4.5 mg/kg.
